Laboratory results published in patent US6806359B1, “Hormone receptor compositions and methods” (The Salk Institute for Biological Studies, priority 1986, dated 2004).
“Also recorded” adds a separate entry of the source.

Columns and labels:
rTR alpha = target: T1, rTR alpha (Rattus norvegicus, UniProt P63059); assay: ^125I-T3 binding to in vitro translated rTR alpha (Scatchard and competition); conditions: for competition for T3 binding to rTR alpha by excess compound: excess competitor
T1 construct: made in house; host or cells: rabbit reticulocyte lysate (SP6 transcripts of rbeA12B)
T1 sequence (P63059 1-410 isoform P63059-2): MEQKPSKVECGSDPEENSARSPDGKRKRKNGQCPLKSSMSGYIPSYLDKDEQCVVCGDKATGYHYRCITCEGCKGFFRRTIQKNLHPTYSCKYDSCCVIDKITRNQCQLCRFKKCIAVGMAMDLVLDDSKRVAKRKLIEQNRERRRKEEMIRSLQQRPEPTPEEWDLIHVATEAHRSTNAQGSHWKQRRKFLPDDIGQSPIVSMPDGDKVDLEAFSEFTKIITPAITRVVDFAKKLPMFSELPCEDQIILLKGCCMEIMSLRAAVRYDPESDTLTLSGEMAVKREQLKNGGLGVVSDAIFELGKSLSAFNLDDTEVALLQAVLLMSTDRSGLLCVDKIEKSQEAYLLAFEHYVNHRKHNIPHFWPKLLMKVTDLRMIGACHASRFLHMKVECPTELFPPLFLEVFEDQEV
Excerpt: In vitro translation and thyroid hormone binding of rTR alpha FIG. 69 rTR alpha was transcribed in vitro and translated in a rabbit reticulocyte lysate. […] Lane 1, no added RNA; lane 2, rbeA12, which contains the entire 5′ untranslated region; lane 3, rbeA12B, which contains only 97 bp of 5′ untranslated sequence. […] Samples from rbeA12B programmed lysates were mixed with increasing concentrations of unlabeled thyroid hormone or analogs to compete with labeled hormone. […] In vitro transcription and translation and hormone binding were performed as described (22, 23).
23. For in vitro transcription, the entire EcoRI insert of rbeA12 was cloned into pGEM1 (Promega Biotec). […] For thyroid hormone binding, transcriptions were performed with SP6 polymerase and 5 to 10 micrograms of rbeA12B linearized with SstI. […] Thyroid hormone binding for both the Scatchard and competition analyses were determined in the same manner, except that unlabeled protein was used for the Scatchard analysis. […] Specific hormone binding was determined by adding a 1000-fold excess of unlabeled hormone and assayed by counting radioactivity eluting in the excluded volume from a Sephadex G-25 fine (Pharmacia) 0.9-by 4.0-cm. column.

hMR = target: T2, hMR (Homo sapiens, UniProt P08235); assay: [^3H]aldosterone binding and steroid competition in extracts of pRShMR-transfected COS cells; set-up: expressed in transfected cells; host or cells: COS cells transfected with pRShMR (DEAE-dextran); conditions: 1-, 10-, or 100-fold molar excess of unlabeled steroid
T2 sequence (P08235 1-984): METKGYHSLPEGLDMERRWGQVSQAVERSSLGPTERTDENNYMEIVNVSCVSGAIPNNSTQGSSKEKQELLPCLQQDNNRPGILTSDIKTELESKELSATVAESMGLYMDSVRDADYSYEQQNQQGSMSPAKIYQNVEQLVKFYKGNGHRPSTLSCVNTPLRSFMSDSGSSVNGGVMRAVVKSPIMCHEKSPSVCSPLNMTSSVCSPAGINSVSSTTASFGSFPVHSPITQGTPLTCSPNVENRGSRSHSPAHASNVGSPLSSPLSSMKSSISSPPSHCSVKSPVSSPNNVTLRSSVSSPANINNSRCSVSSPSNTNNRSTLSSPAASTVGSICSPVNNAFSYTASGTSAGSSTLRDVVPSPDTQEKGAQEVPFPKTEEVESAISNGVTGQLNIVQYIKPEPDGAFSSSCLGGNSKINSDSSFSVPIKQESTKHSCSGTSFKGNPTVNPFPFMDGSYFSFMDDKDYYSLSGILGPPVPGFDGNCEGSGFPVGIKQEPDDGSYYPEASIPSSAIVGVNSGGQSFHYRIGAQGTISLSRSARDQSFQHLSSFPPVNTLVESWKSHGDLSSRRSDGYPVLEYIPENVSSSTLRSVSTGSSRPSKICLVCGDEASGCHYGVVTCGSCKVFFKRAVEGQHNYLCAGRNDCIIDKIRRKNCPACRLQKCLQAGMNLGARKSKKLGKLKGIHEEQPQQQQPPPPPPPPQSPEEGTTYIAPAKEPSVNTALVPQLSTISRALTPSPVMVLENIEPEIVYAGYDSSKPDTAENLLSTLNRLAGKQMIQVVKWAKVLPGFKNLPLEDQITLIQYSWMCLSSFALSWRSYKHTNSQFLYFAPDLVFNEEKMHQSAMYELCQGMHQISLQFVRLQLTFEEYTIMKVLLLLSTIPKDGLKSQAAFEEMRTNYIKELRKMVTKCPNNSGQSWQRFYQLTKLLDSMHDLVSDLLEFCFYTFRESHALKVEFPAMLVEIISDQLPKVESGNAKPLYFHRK
Protocol: Ligand specificity of the hMR protein was determined by preparing cytosol extracts from COS cells transfected with pRShMR. Two days after transfection, cells were harvested, and hormone binding was measured by a dextran-treated charcoal assay. […] This provided a measure of the relative affinity of each of these steroids for hMR.
Steroid-binding properties of expressed hMR. FIG. 38 Structure of pRShMR, the hMR expression plasmid (41). […] Each point was assayed in triplicate with 100 micrograms of extract protein in a 200-microliter incubation at 0° C. for 2.5 hours. […] The results of two independent trials representative of these competition experiments are shown. Cold competitor was present in 1-, 10-, or 100-fold molar excess. […] Subconfluent COS cells were transfected by the DEAE-dextran method (42) with 10 micrograms of pRShMR per dish. Cells were maintained for 2 days in DMEM (Dulbecco's modification of Eagle's minimum essential medium) with 5 percent charcoal-treated fetal calf serum, then harvested in […] tris-HCl. (pH 7.8), 10 nM NaCl, 1 mM EDTA, 10 mM Na2MoO4, 5 mM dithiothreitol, antipain (5 microgram/ml), leupeptin (5 microgram/ml), and 500 microM phenylmethylsulfonyl fluoride. After centrifugation at 15,000×g for 10 minutes, extracts were adjusted to 100 mM NaCl and 5 percent glycerol before binding. […] After centrifugation at 15,000×g for 2 minutes at 40C, tritium in supernatant was quantified by liquid scintillation spectrophotometry.

GR = target: T3, GR (Homo sapiens, UniProt P04150); assay: hGR functional assay: CAT activity in CV-1 cells cotransfected with pRShGR alpha (or mutant) and pMTVCAT; type: cell-based; set-up: The expression vector linking the RSV LTR to full length hGR cDNA (pRShGR alpha) was designed to obtain high levels of expression; expressed in transfected cells; host or cells: CV-1 monkey kidney cells, cotransfected with pMTVCAT; conditions: 100 nM steroid, cotransfected CV-1 cells
T3 sequence (P04150 1-777): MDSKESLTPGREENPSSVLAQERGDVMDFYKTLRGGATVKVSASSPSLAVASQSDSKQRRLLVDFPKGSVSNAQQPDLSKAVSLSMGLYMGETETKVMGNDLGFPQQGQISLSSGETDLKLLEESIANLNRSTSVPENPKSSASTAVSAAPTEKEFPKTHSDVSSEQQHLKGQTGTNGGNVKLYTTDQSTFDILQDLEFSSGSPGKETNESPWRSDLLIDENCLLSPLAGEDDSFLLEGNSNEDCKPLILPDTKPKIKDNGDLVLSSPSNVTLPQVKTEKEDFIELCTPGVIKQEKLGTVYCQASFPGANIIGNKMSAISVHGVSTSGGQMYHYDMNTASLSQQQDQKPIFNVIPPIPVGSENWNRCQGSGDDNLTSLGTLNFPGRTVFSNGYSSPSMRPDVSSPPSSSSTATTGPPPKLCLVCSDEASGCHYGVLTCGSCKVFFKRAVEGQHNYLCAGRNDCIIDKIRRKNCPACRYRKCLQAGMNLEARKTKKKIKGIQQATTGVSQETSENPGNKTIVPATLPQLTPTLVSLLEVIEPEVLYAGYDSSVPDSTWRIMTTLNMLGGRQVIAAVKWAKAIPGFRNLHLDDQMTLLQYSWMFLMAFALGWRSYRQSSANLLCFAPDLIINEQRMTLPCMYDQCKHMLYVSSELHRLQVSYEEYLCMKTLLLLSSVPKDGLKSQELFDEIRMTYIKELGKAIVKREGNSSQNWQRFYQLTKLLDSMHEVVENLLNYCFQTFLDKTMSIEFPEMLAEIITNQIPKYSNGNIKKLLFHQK
Excerpt: The assay system and strategy used to study the expression of functional hGR from the cloned cDNA (See Experimental Section I) is shown in FIG. 11. In these experiments, a glucocorticoid-responsive promoter/enhancer element linked to a reporter gene was introduced into a receptor-negative cell. […] For our assay, we chose to use the MTV LTR fused to the sequence coding for chloramphenicol acetyltransferase (CAT) (EC2.3.1.28). […] Cotransfection of pMTVCAT (or pGMCAT) with a receptor expression plasmid provides functional receptors that allow induction of CAT activity upon treatment of the transfected cells with glucocorticoid hormone. In addition, biochemical studies such as steroid binding activity and Western blot analysis of the expressed receptors can be performed simultaneously.
The cells are then cultured in the presence or absence of hormone. CV-1 cells were used to monitor induction of CAT activity, and COS cells were used to measure steroid-binding capacity and the expression of hGR protein.
CAT assays were performed as indicated in Experimental Procedures (See Section II. F.). C, chloramphenicol; AC, 3-acetylchloramphenicol.
The levels of CAT activity were plotted as percentages of the maximal response observe in a particular experiment.
Each plasmid preparation used for transfection was purified using two consecutive CsCl-EtBr equilibrium gradients. […]

## N[C@@H](Cc1cc(I)c(Oc2cc(I)c(O)c(I)c2)c(I)c1)C(=O)O [L-thyroxine]
rTR alpha; in vitro translated rTR alpha
  competition for ^125I-T3 binding to rTR alpha (in words): same characteristic affinities

## C[C@]12C[C@H](O)[C@H]3[C@@H](CCC4=CC(=O)CC[C@@]43C)[C@@H]1CC[C@@H]2C(=O)CO [corticosterone]
hMR
  relative affinity for hMR by competition with 5 nM [^3H]aldosterone (in words): very similar affinities; also recorded: compete as effectively as aldosterone itself

## C[C@]12CC[C@H]3[C@@H](CCC4=CC(=O)CC[C@@]43C)[C@@H]1CC[C@@H]2C(=O)CO [deoxycorticosterone]
hMR
  relative affinity for hMR by competition with 5 nM [^3H]aldosterone (in words): very similar affinities; also recorded: compete as effectively as aldosterone itself

## CC(=O)[C@H]1CC[C@H]2[C@@H]3CCC4=CC(=O)CC[C@]4(C)[C@H]3CC[C@]12C [progesterone]
rTR alpha
  competition for T3 binding to rTR alpha by excess compound: no competition

## CC(=O)S[C@@H]1CC2=CC(=O)CC[C@]2(C)[C@H]2CC[C@@]3(C)[C@@H](CC[C@@]34CCC(=O)O4)[C@H]12 [spironolactone]
hMR
  relative affinity for hMR by competition with 5 nM [^3H]aldosterone (in words): weaker binding affinity

## C[C@]12CC[C@H]3[C@@H](CCC4=CC(=O)CC[C@@]43C)[C@@H]1CC[C@@H]2O [testosterone]
rTR alpha
  competition for T3 binding to rTR alpha by excess compound: no competition
GR
  induction of CAT activity by steroid: failed to induce CAT activity

## C=C1CC[C@H](O)C/C1=C/C=C1\CCC[C@]2(C)[C@@H]([C@H](C)CCCC(C)C)CC[C@@H]12 [vitamin D3]
rTR alpha
  competition for T3 binding to rTR alpha by excess compound: no competition
